US11365204B2, “Substituted dihydrothienopyrimidines and their use as phosphodiesterase inhibitors” (UNION therapeutics A/S, priority 2017, dated 2022)

Key:
[1] = molecular target: human PDE4D catalytic domain (UniProt no. Q08499 [S380-L740]) (Homo sapiens (Human), UniProt Q08499); assay: PDE4 assay (TR-FRET, cAMP hydrolysis); format: biochemical; conditions: read-out: PDE4 IC50 range
Protocol: The human PDE4D catalytic domain (UniProt no. Q08499 [S380-L740]) was incubated with a mixture of non-labelled cAMP (cyclic adenosine monophosphate) and fluorescein amidite (FAM) conjugated cAMP and titrated test or reference compound.
Following brief incubation the enzymatic reaction was stopped by addition of binding buffer containing nanoparticles with immobilized trivalent metal ions capable of binding 1) AMP phospho groups and 2) terbium (Tb) donor fluorophores. Subsequent excitation of the Tb donor triggered time-resolved FRET to adjacent FAM acceptor molecules resulting in light emission. In the presence of a PDE4 inhibitor, AMP generation was reduced resulting in a lower fluorescence signal. The cAMP phosphodiester is not bound by the detection system.
Results were expressed as IC50 values (nM) calculated from inhibition curves where the TR-FRET signal was normalized to Tb fluorescence intensity and the negative (DMSO vehicle) and positive (10 microM a PDE4 inhibitor reference compound) controls.

[2] = system: Human peripheral blood mononuclear cells (PBMC); assay: TNF-α release from LPS-stimulated PBMC; format: cell-based; conditions: Lipopolysaccharide 1 microg/ml, 18 hours, AlphaLISA, read-out: TNF-α IC50 range
Protocol: Human peripheral blood mononuclear cells (PBMC) were isolated from fresh buffy coats by density centrifugation using lymphoprep tubes (Medinor). Frozen PBMC's were washed in serum free assay buffer (RPMI1640 with 25 mM HEPES, 1% pen/strep, […] L glutamine, 0.5% human serum albumin) and living cells counted. Lipopolysaccharide (1 microg/ml; SIGMA) was added to the cells which were then transferred to 384 well tissue culture plates ([…]) containing titrated test compounds. The cells were incubated for 18 hours at 37° C. in serum free assay buffer and the level of TNFalpha in the supernatant was quantitated by AlphaLISA (PerkinElmer) by measuring fluorescence intensity at 615 nm.
Results were expressed as IC50 values calculated from inhibition curves using as controls the secretion in LPS stimulated wells and the secretion in cells incubated with 10 microM of a PDE4 inhibitor reference compound.

Sequence of human PDE4D catalytic domain (Q08499 380-740): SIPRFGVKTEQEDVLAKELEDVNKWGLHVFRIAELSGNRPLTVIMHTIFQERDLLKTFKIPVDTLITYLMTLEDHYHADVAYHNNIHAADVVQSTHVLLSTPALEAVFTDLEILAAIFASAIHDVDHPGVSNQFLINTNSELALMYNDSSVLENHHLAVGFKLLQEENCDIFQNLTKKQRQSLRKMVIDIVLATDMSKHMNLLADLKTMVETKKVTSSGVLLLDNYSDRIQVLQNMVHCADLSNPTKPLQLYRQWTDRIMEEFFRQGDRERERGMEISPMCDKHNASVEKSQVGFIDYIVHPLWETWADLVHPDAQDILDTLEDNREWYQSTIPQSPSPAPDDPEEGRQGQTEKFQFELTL

| Structure (SMILES) | IC50 [1] [nM] | IC50 [2] [nM] |
| --- | --- | --- |
| CN(c1nc(N2CC(OC(=O)c3cnn(C)c3)C2)nc2c1[S+]([O-])CC2)C1CCOCC1 (stereo not shown) [Example 18, [1-[4-[methyl(tetra-hydropyran-4-yl)amino]-5-oxido-6,7-dihydro-thieno[3,2-d]pyrimidin-5-ium-2-yl]azetidin-3-yl] 1-methylpyrazole-4-carboxylate] | < 100 | < 100 |
| CN(c1nc(N2CC(OC(=O)c3cn(C)cn3)C2)nc2c1[S+]([O-])CC2)C1CCOCC1 (stereo not shown) [Example 19, [1-[4-[methyl(tetra-hydropyran-4-yl)amino]-5-oxido-6,7-dihydro-thieno[3,2-d]pyrimidin-5-ium-2-yl]azetidin-3-yl] 1-methylimidazole-4-carboxylate] | < 100 | < 100 |
| Cc1nc(C(=O)OC2CN(c3nc4c(c(N(C)C5CCOCC5)n3)[S+]([O-])CC4)C2)co1 (stereo not shown) [Example 20, [1-[4-[methyl(tetra-hydropyran-4-yl)amino]-5-oxido-6,7-dihydro-thieno[3,2-d]pyrimidin-5-ium-2-yl]azetidin-3-yl] 2-methyloxazole-4-carboxylate] | < 100 | < 100 |
| Cc1ncc(C(=O)OC2CN(c3nc4c(c(N(C)C5CCOCC5)n3)[S+]([O-])CC4)C2)o1 (stereo not shown) [Example 21, [1-[4-[methyl(tetra-hydropyran-4-yl)amino]-5-oxido-6,7-dihydro-thieno[3,2-d]pyrimidin-5-ium-2-yl]azetidin-3-yl] 2-methyloxazole-5-carboxylate] | < 100 | < 100 |
| CN(c1nc(N2CC(OC(=O)c3ccns3)C2)nc2c1[S+]([O-])CC2)C1CCOCC1 (stereo not shown) [Example 22, [1-[4-[methyl(tetra-hydropyran-4-yl)amino]-5-oxido-6,7-dihydro-thieno[3,2-d]pyrimidin-5-ium-2-yl]azetidin-3-yl] isothiazole-5-carboxylate] | < 100 | < 100 |
| CN(c1nc(N2CC(OC(=O)C3CCOCC3)C2)nc2c1[S+]([O-])CC2)C1CCOCC1 (stereo not shown) [Example 23, [1-[4-[methyl(tetra-hydropyran-4-yl)amino]-5-oxido-6,7-dihydro-thieno[3,2-d]pyrimidin-5-ium-2-yl]azetidin-3-yl] tetrahydropyran-4-carboxylate] | < 100 | < 100 |
| Cc1ccccc1C(=O)OC1CN(c2nc3c(c(N(C)C4CCOCC4)n2)[S+]([O-])CC3)C1 (stereo not shown) [Example 24, [1-[4-[methyl(tetra-hydropyran-4-yl)amino]-5-oxido-6,7-dihydro-thieno[3,2-d]pyrimidin-5-ium-2-yl]azetidin-3-yl] 2-methylbenzoate] | < 100 | < 100 |
| Cc1cccc(C(=O)OC2CN(c3nc4c(c(N(C)C5CCOCC5)n3)[S+]([O-])CC4)C2)c1 (stereo not shown) [Example 25, [1-[4-[methyl(tetra-hydropyran-4-yl)amino]-5-oxido-6,7-dihydro-thieno[3,2-d]pyrimidin-5-ium-2-yl]azetidin-3-yl] 3-methylbenzoate] | < 100 | < 100 |
| Cc1ccc(C(=O)OC2CN(c3nc4c(c(N(C)C5CCOCC5)n3)[S+]([O-])CC4)C2)cc1 (stereo not shown) [Example 26, [1-[4-[methyl(tetra-hydropyran-4-yl)amino]-5-oxido-6,7-dihydro-thieno[3,2-d]pyrimidin-5-ium-2-yl]azetidin-3-yl] 4-methylbenzoate] | < 100 | < 100 |
| Cc1ncc(C(=O)OC2CN(c3nc4c(c(N(C)C5CCOCC5)n3)[S+]([O-])CC4)C2)cn1 (stereo not shown) [Example 27, [1-[4-[methyl(tetra-hydropyran-4-yl)amino]-5-oxido-6,7-dihydro-thieno[3,2-d]pyrimidin-5-ium-2-yl]azetidin-3-yl] 2-methylpyrimidine-5-carboxylate] | < 100 | < 100 |
| CN(c1nc(N2CC(OC(=O)c3ccc(F)cc3)C2)nc2c1[S+]([O-])CC2)C1CCOCC1 (stereo not shown) [Example 28, [1-[4-[methyl(tetra-hydropyran-4-yl)amino]-5-oxido-6,7-dihydro-thieno[3,2-d]pyrimidin-5-ium-2-yl]azetidin-3-yl] 4-fluorobenzoate] | < 100 | < 100 |
| CN(c1nc(N2CC(OC(=O)c3ccccc3F)C2)nc2c1[S+]([O-])CC2)C1CCOCC1 (stereo not shown) [Example 29, [1-[4-[methyl(tetra-hydropyran-4-yl)amino]-5-oxido-6,7-dihydro-thieno[3,2-d]pyrimidin-5-ium-2-yl]azetidin-3-yl] 2-fluorobenzoate] | < 100 | < 100 |
| CCn1ccc(C(=O)OC2CN(c3nc4c(c(N(C)C5CCOCC5)n3)[S+]([O-])CC4)C2)n1 (stereo not shown) [Example 30, [1-[4-[methyl(tetra-hydropyran-4-yl)amino]-5-oxido-6,7-dihydro-thieno[3,2-d]pyrimidin-5-ium-2-yl]azetidin-3-yl] 1-ethylpyrazole-3-carboxylate] | < 100 | < 100 |
| Cc1cc(C(=O)OC2CN(c3nc4c(c(N(C)C5CCOCC5)n3)[S+]([O-])CC4)C2)nn1C (stereo not shown) [Example 31, [1-[4-[methyl(tetra-hydropyran-4-yl)amino]-5-oxido-6,7-dihydro-thieno[3,2-d]pyrimidin-5-ium-2-yl]azetidin-3-yl] l,5-dimethylpyrazole-3-carboxylate] | < 100 | < 100 |
| CCn1cc(C(=O)OC2CN(c3nc4c(c(N(C)C5CCOCC5)n3)[S+]([O-])CC4)C2)cn1 (stereo not shown) [Example 32, [1-[4-[methyl(tetra-hydropyran-4-yl)amino]-5-oxido-6,7-dihydro-thieno[3,2-d]pyrimidin-5-ium-2-yl]azetidin-3-yl] 1-ethylpyrazole-4-carboxylate] | < 100 | < 100 |
| CCc1nc(C(=O)OC2CN(c3nc4c(c(N(C)C5CCOCC5)n3)[S+]([O-])CC4)C2)co1 (stereo not shown) [Example 33, [1-[4-[methyl(tetra-hydropyran-4-yl)amino]-5-oxido-6,7-dihydro-thieno[3,2-d]pyrimidin-5-ium-2-yl]azetidin-3-yl] 2-ethyloxazole-4-carboxylate] | < 100 | < 100 |
| Cc1cc(C(=O)OC2CN(c3nc4c(c(N(C)C5CCOCC5)n3)[S+]([O-])CC4)C2)sn1 (stereo not shown) [Example 34, [1-[4-[methyl(tetra-hydropyran-4-yl)amino]-5-oxido-6,7-dihydro-thieno[3,2-d]pyrimidin-5-ium-2-yl]azetidin-3-yl] 3-methylisothiazole-5-carboxylate] | < 100 | < 100 |
| Cc1nc(C(=O)OC2CN(c3nc4c(c(N(C)C5CCOCC5)n3)[S+]([O-])CC4)C2)cs1 (stereo not shown) [Example 35, [1-[4-[methyl(tetra-hydropyran-4-yl)amino]-5-oxido-6,7-dihydro-thieno[3,2-d]pyrimidin-5-ium-2-yl]azetidin-3-yl] 2-methylthiazole-4-carboxylate] | < 100 | < 100 |
| Cc1ncc(C(=O)OC2CN(c3nc4c(c(N(C)C5CCOCC5)n3)[S+]([O-])CC4)C2)s1 (stereo not shown) [Example 36, [1-[4-[methyl(tetra-hydropyran-4-yl)amino]-5-oxido-6,7-dihydro-thieno[3,2-d]pyrimidin-5-ium-2-yl]azetidin-3-yl] 2-methylthiazole-5-carboxylate] | < 100 | < 100 |
| CN(c1nc(N2CC(OC(=O)[C@H]3CC[C@@H](O)CC3)C2)nc2c1[S+](O)CC2)C1CCOCC1 (stereo partly shown) [Example 37, [1-[4-[methyl(tetra-hydropyran-4-yl)amino]-5-oxido-6,7-dihydro-thieno[3,2-d]pyrimidin-5-ium-2-yl]azetidin-3-yl] 4-hydroxycyclohexane-carboxylate] | < 100 | < 100 |
| CN(c1nc(N2CC(OC(=O)[C@H]3CC[C@@H](O)CC3)C2)nc2c1[S+](O)CC2)C1CCOCC1 (stereo partly shown) [Example 38, [1-[4-[methyl(tetra-hydropyran-4-yl)amino]-5-oxido-6,7-dihydro-thieno[3,2-d]pyrimidin-5-ium-2-yl]azetidin-3-yl] 4-hydroxycyclohexane-carboxylate] | < 100 | < 100 |
| CN(c1nc(N2CC(OC(=O)[C@H]3CC[C@H](O)CC3)C2)nc2c1[S+](O)CC2)C1CCOCC1 (stereo partly shown) [Example 39, [1-[4-[methyl(tetra-hydropyran-4-yl)amino]-5-oxido-6,7-dihydro-thieno[3,2-d]pyrimidin-5-ium-2-yl]azetidin-3-yl] 4-hydroxycyclohexane-carboxylate] | < 100 | < 100 |
| CN(c1nc(N2CC(OC(=O)C3CCSCC3)C2)nc2c1[S+](O)CC2)C1CCOCC1 (stereo not shown) [Example 40, [1-[4-[methyl(tetra-hydropyran-4-yl)amino]-5-oxido-6,7-dihydro-thieno[3,2-d]pyrimidin-5-ium-2-yl]azetidin-3-yl] tetrahydrothiopyran-4-carboxylate] | < 100 | < 100 |
